Reference: PubChem BioAssay (NCI)
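A five-concentration, 48-hour dose response in 96-well plates underlies each endpoint, interpolated linearly between surrounding concentrations. TGI: concentration producing complete growth inhibition.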 Where a SMILES comes first, the peptide text is derived from it.

Experiments:
Experiment in all cases: inhibition of tumour cell growth, NCI panel, 48 h
[1] = tested on: SR leukemia
[2] = tested on: MOLT-4 leukemia
[3] = tested on: HCT-116 colon
[4] = tested on: MALME-3M melanoma
[5] = tested on: OVCAR-4 ovarian
[6] = tested on: OVCAR-5 ovarian
[7] = tested on: HL-60(TB) leukemia
[8] = tested on: MDA-MB-435
[9] = tested on: OVCAR-3 ovarian
[10] = tested on: SK-OV-3 ovarian
[11] = tested on: 786-0 renal
[12] = tested on: SNB-75 CNS
[13] = tested on: SF-539 CNS

Row | SMILES | TGI [1] [µM] | TGI [2] [µM] | TGI [3] [µM] | TGI [4] [µM] | TGI [5] [µM] | TGI [6] [µM] | TGI [7] [µM] | TGI [8] [µM] | TGI [9] [µM] | TGI [10] [µM] | TGI [11] [µM] | TGI [12] [µM] | TGI [13] [µM]
1 | CN1CCOC1(C)CO (stereo not given) | > 100 | > 100 | > 100 | > 100 | > 100 | > 100 | > 100 | > 100 | > 100 | > 100 | > 100 | > 100 | > 100
2 | CCOC(=O)c1nc2c(Cl)c3ncccc3cc2[nH]c1=O | > 100 | 45.6 | > 100 | > 100 | > 100 | > 100 | > 100 | > 100 | > 100 | > 100 | > 100 | > 100 | > 100
3 | CC1(C#N)CC(C)(C)C(/C=C2/CC(C)(C)C(/C=C3/OC(=N)CC3(C)C)=N2)=N1 (stereo not given) | > 100 | 89.7 | > 100 | 20 | 43.7 | > 100 | 78.1 | 63.9 | 45.8 | 61 | 62.6 | > 100 | > 100
4 | Cc1cccc(/C=N/NC(=S)NCCc2ccccn2)n1 | > 100 | > 100 | > 100 | > 100 | > 100 | > 100 | 41.7 | > 73.7 | > 100 | 43.5 | > 100 | 75 | > 73.3
5 | O=C(C(=O)N1CCc2ccccc21)c1c[nH]c2ccccc12 | > 10 | > 10 | > 10 | > 10 | > 10 | > 10 | > 10 | > 10 | > 10 | > 10 | > 10 | > 10 | > 10
6 | C=CCNC1=C2C[C@@H](C)C[C@@H](OC)[C@@H](OC(=O)CCCN)[C@H](C)/C=C(\C)[C@@H](OC(N)=O)[C@H](OC)/C=C\C=C(/C)C(=O)NC(=CC1=O)C2=O | > 79 | 40.2 | 52.9 | 27.8 | 48.4 | 31.8 | 19.7 | 45.2 | 32.8 | 28.7 | 42.2 | 22.2 | 29.9
7 | CC(=O)Oc1ccccc1-c1cc2ccccc2oc1=O | > 100 | > 100 | > 100 | > 100 | – | > 100 | > 100 | > 100 | > 100 | – | > 100 | > 100 | > 100
8 | C[C@]12CCC(=O)C=C1CC[C@@H]1C2CC[C@]2(C)c3nn(-c4ccc(F)cc4)nc3CC12 (stereo not given in full) | > 100 | > 100 | > 100 | > 100 | > 100 | > 100 | > 100 | > 100 | > 100 | > 100 | > 100 | > 100 | > 100
9 | Cc1ccc2nc(-c3ccc(N)c(I)c3)sc2c1 | 19.8 | > 100 | > 100 | > 100 | 41.9 | > 100 | 51 | 79.1 | > 100 | > 100 | 32.7 | > 100 | 68.3
10 | COc1ccc2c(c1)CN1C(=N2)CSC1c1cc([N+](=O)[O-])ccc1Cl (stereo not given) | > 100 | > 100 | > 100 | > 100 | > 100 | > 100 | 45.8 | > 100 | – | > 100 | > 100 | > 100 | 98.2
11 | CCOC(=O)C(N)CSC(=O)NC (stereo not given) | 158 | 215 | 321 | 306 | 481 | 689 | 272 | 98.4 | 290 | 621 | 201 | 598 | 231
12 | CCC1c2[nH]c3ccccc3c2C[C@H]2C(=O)NC(COC(C)(C)C)C(=O)N12 (stereo not given in full) | > 100 | 98.5 | > 100 | 94.7 | > 100 | > 100 | 60.9 | > 100 | > 100 | > 100 | > 100 | 78.6 | –
13 | CC(=O)N(C(=O)CC(=O)N/N=C\c1ccc(Br)c(N(CCC#N)CCC#N)c1)c1ccc(Cl)cc1 | > 100 | > 100 | > 100 | > 100 | – | 55.9 | > 100 | > 100 | > 100 | > 100 | > 100 | > 100 | > 100
14 | Cc1cn(C2CC(ON3C(=O)c4ccccc4C3=O)C(CO)O2)c(=O)[nH]c1=O (stereo not given) | > 10 | > 10 | > 10 | > 10 | > 10 | > 10 | > 10 | > 10 | > 10 | > 10 | > 10 | > 10 | > 10
15 | O=C1c2cc3c(cc2CC12Cc1cc4c(cc1C2=O)CCC4)CCCC3 (stereo not given) | > 100 | > 100 | > 100 | > 100 | > 100 | > 100 | > 100 | > 100 | > 100 | > 100 | > 100 | > 100 | > 100
16 | N#Cc1sc2nc(/C=C3/C=CC=CC3=O)c(O)n2c1N | 60.3 | 59.8 | > 100 | > 100 | > 100 | > 100 | 44.3 | > 100 | > 100 | > 100 | > 100 | > 100 | 60

Row | SMILES | TGI [1] [µM] | TGI [2] [µM] | TGI [3] [µM] | TGI [4] [µM] | TGI [5] [µM] | TGI [6] [µM] | TGI [7] [µM] | TGI [8] [µM] | TGI [9] [µM] | TGI [10] [µM] | TGI [11] [µM] | TGI [12] [µM] | TGI [13] [µM]
17 | CC1=NC(=Cc2ccc(O)cc2)C(=O)N1n1c(-c2ccccc2)nc2ccccc2c1=O | > 100 | > 100 | > 100 | > 100 | – | – | > 100 | > 100 | – | > 100 | > 100 | > 100 | > 100
18 | CC1(C)OCC2OC3(c4nc(C#N)c(N)o4)OC(C)(C)OC3C2O1 (stereo not given) | > 100 | > 100 | > 100 | > 100 | > 100 | > 100 | > 100 | > 100 | > 100 | > 100 | > 100 | > 100 | > 100
19 | COC(=O)C1=C(C)NC(C)=C(C(=O)OC)C1c1ccc(/[N+]([O-])=C/c2ccccc2)cc1 | 80 | 71.5 | 30 | 31.3 | 32.6 | > 100 | 63.2 | > 100 | 34.4 | > 100 | 33.3 | > 100 | > 100
20 | COc1ccc2c(c1C)C(=O)C(O)(CC=C(C)C)O2 (stereo not given) | > 100 | > 100 | > 100 | > 100 | – | > 100 | > 100 | > 100 | > 100 | > 100 | > 100 | > 100 | > 100
21 | COc1ccc(CCNC2=CC(=O)c3ncccc3C2=O)cc1OC | > 79.8 | 23.7 | 10.2 | 2.03 | 16.7 | 6.63 | 10.6 | 0.924 | 5.12 | 24.4 | 21.2 | 2.13 | 4.73
22 | CCN(CC)/C(Cl)=C(Cl)\C(=C1\Nc2ccc(OC)cc21)[N+](=O)[O-] | 65 | 85.2 | > 100 | > 100 | > 100 | > 100 | > 100 | > 100 | 57.3 | > 100 | > 100 | 81.8 | –
23 | N#Cc1c(-c2ccccc2)[nH]c2ccccc2c1=O | > 100 | > 100 | > 100 | > 100 | > 100 | > 100 | > 100 | 59.2 | > 100 | > 100 | > 100 | 38.3 | > 100
24 | O=C(NCCCNC(=O)c1ccc2c(O)c(O)ccc2c1)c1ccc2c(O)c(O)ccc2c1 | > 90.7 | 52.3 | > 94.4 | > 100 | > 100 | > 74.4 | > 100 | 36.1 | 56.5 | > 100 | 57.9 | 42.5 | > 100
25 | CC12CCC(C(=O)OC1=O)C2(C)C (stereo not given) | 64.3 | > 100 | > 100 | > 100 | > 100 | > 100 | > 100 | > 100 | > 100 | > 100 | > 100 | > 100 | > 100
26 | O=C1NC(=O)C(c2c[nH]c3cc(Br)ccc23)=C1c1cn(C(c2ccccc2)(c2ccccc2)c2ccccc2)cn1 | 32.3 | 23.5 | 23.6 | 56.8 | > 100 | 39 | 39.5 | > 100 | > 100 | > 100 | 23.2 | 48.8 | 37.9
27 | COC(CN(C(=O)c1ccccc1)C1CCC2(SCCS2)c2[nH]c3ccccc3c21)OC (stereo not given) | > 100 | > 100 | > 100 | > 100 | > 100 | > 100 | > 100 | 70.2 | > 100 | – | > 100 | > 100 | > 100
28 | CCC(C)C(NC(=O)C(CCCCN)NC(=O)C(NC(=O)C(CCC(N)=O)NC(=O)C(N)CCCNC(=N)N)C(C)CC)C(=O)NC(Cc1c[nH]c2ccccc12)C(=O)NC(Cc1ccccc1)C(=O)NC(CCC(N)=O)C(=O)NC(CC(N)=O)C(=O)NC(CCCNC(=N)N)C(=O)NC(CCCNC(=N)N)C(=O)NC(CCSC)C(=O)NC(CCCCN)C(=O)NC(Cc1c[nH]c2ccccc12)C(=O)NC(CCCCN)C(=O)NC(CCCCN)C(=O)N1CCCC1C(=O)NC(C)C(=O)NC(CCCCN)C(=O)NC(CCCNC(=N)N)C(=O)NC(CCCCN)C(=O)NC(CC(C)C)C(=O)NC(Cc1ccccc1)C(=O)NCC(=O)O (stereo not given) (H-RQIKIWFQNRRMKWKKPAKRKLFG-OH; configuration not given here) | > 25 | > 25 | > 25 | 18.3 | > 25 | > 25 | 17.6 | > 25 | > 25 | > 25 | > 25 | > 25 | –
29 | CCC1OC2C(CC=C(C)C)=C3OC(C)(O)C(C)(CC)C(OC(=O)c4ccccc4)C3=C3OC(=O)C=C1C32 (stereo not given) | > 100 | > 100 | > 100 | > 100 | – | > 100 | > 100 | > 100 | > 100 | > 100 | > 100 | > 100 | 54.1
30 | CCN(CC)c1ccc2cc(-c3nnc(-c4ccccc4)o3)c(=O)oc2c1 | > 100 | – | > 100 | > 100 | > 100 | > 100 | 70.6 | > 100 | 37.1 | 21.2 | > 82.1 | 69 | > 37.5
31 | CO[C@H]1[C@@H](O)[C@@H](C)O[C@@H](O[C@H]2CC[C@@]3(C)[C@H](CC[C@@H]4[C@@H]3CC[C@]3(C)[C@@H](C5=CC(=O)OC5)[C@@H](OC(C)=O)C[C@]43O)C2)[C@@H]1O | > 50 | – | 0.109 | 0.0445 | 0.127 | 0.214 | 0.332 | 0.407 | 0.0905 | 0.188 | 0.067 | 0.332 | 0.091
32 | Cc1cccc2c1[C@]13OC(C)[C@]4(C)CC5OC(=O)[C@@]1(C)[C@@H]5[C@]34C(=O)O2 (stereo not given in full) | > 100 | > 100 | > 100 | > 100 | – | > 100 | > 100 | > 100 | > 100 | > 100 | > 100 | > 100 | > 100
